The subject of the assay is HIV. In words: HOS HIV infectivity assay (Table 2, strain not given). The assay is classed as cell-based. The note with it: Human immunodeficiency virus 1, read-out: Activity Level. On the procedure:
HOS HIV-1 Infectivity Assay
Compounds were profiled against two HIV-1 viruses, the M-tropic (CCR5 utilizing) Ba-L strain and the T-tropic (CXCR4 utilizing) IIIB strain. Both viruses were propagated in human peripheral blood lymphocytes. Compounds were tested for there ability to block infection of the HOS cell line (expressing hCXCR4/hCCR5/hCD4/pHIV-LTR-luciferase) by either HIV-1 Ba-L or HIV-1 IIIB. Compound cytotoxicity was also examined in the absence of virus addition.
HOS HIV-1 Infectivity Assay Format
HOS cells (expressing hCXCR4/hCCR5/hCD4/pHIV-LTR-luciferase) were harvested and diluted in Dulbeccos modified Eagles media supplemented with 2% FCS and non-essential amino acid to a concentration of 60,000 cells/ml. The cells were plated into 96-well plates (100 ul per well) and the plates were placed in a tissue culture incubator (37° C.; 5% CO2/95% air) for a period of 24 h.
Subsequently, 50 ul of the desired drug solution (4 times the final concentration) was added to each well and the plates were returned to the tissue culture incubator (37° C.; 5% CO2/95% air) for 1 h. Following this incubation 50 ul of diluted virus was added to each well (approximately 2 million RLU per well of virus). The plates were returned to the tissue culture incubator (37° C.; 5% CO2/95% air) and were incubated for a further 96 h.
Following this incubation the endpoint for the virally infected cultures was quantified following addition of Steady-Glo Luciferase assay system reagent (Promega, Madison, Wis.). Cell viability or non-infected cultures was measured using a CellTiter-Glo luminescent cell viability assay system (Promega, Madison, Wis.). All luminescent readouts are performed on a Topcount luminescence detector (Packard, Meridien, Conn.).

A value given as a limit tells only on which side of the number the result lay.

Regarding `CN(C)CCOc1cccc2nc(CN(C)[C@H]3CCCc4cccnc43)cn12` [Example 104, (8S)—N-[(5-{[2-(Dimethylamino)ethyl]oxy}imidazo[1,2-a]pyridin-2-yl)methyl]-N-methyl-5,6,7,8-tetrahydro-8-quinolinamine], the IC50 was < 0.1 µM.

Take `CNC1CCN(c2cccc3nc(CN(C)C4CCCc5cccnc54)cn23)CC1` (centres unmarked) [Example 36, N-Methyl-N-({5-[4-(methylamino)-1-piperidinyl]imidazo[1,2-a]pyridin-2-yl}methyl)-5,6,7,8-tetrahydro-8-quinolinamine]: the IC50 was < 0.1 µM.

Regarding `CN(Cc1cn2c(N)cccc2n1)C1CCCc2cccnc21` (centres unmarked) [Example 43, N-[(5-Aminoimidazo[1,2-a]pyridin-2-yl)methyl]-N-methyl-5,6,7,8-tetrahydro-8-quinolinamine], the IC50 lay within 0.1 to 0.5 µM.

As to `CN(Cc1cn2c(N3CC[C@@H](N(C)C)C3)cccc2n1)C1CCCc2cccnc21` (stereo partly drawn) [Example 23, N-({5-[(3R)-3-(Dimethylamino)-1-pyrrolidinyl]imidazo[1,2-a]pyridin-2-yl}methyl)-N-methyl-5,6,7,8-tetrahydro-8-quinolinamine], the IC50 is < 0.1 µM.

Consider `CCN1CCN(c2cccc3nc(CN(C)[C@H]4CCCc5cccnc54)cn23)CC1` [Example 88, (8S)—N-{[5-(4-Ethyl-1-piperazinyl)imidazo[1,2-a]pyridin-2-yl]methyl}-N-methyl-5,6,7,8-tetrahydro-8-quinolinamine], for which the IC50 was < 0.1 µM.

Regarding `CN(Cc1cn2c(N3CCC(N)CC3)cccc2n1)C1CCCc2cccnc21` (centres unmarked) [Example 37, N-{[5-(4-Amino-1-piperidinyl)imidazo[1,2-a]pyridin-2-yl]methyl}-N-methyl-5,6,7,8-tetrahydro-8-quinolinamine], the IC50 was < 0.1 µM.

For `CN(Cc1cn2c(OCCN3CCCCC3)cccc2n1)[C@H]1CCCc2cccnc21` [Example 106, (8S)—N-Methyl-N-[(5-{[2-(1-piperidinyl)ethyl]oxy}imidazo[1,2-a]pyridin-2-yl)methyl]-5,6,7,8-tetrahydro-8-quinolinamine], the IC50 was < 0.1 µM.

`FC(F)(F)CN(Cc1cn2c(N3CCNCC3)cccc2n1)C1CCCc2cccnc21` (centres unmarked) [Example 22, N-{[5-(1-piperazinyl)imidazo[1,2-a]pyridin-2-yl]methyl}-N-(2,2,2-trifluoroethyl)-5,6,7,8-tetrahydro-8-quinolinamine]: the IC50 was in the range of 0.1 to 0.5 µM.

Take `CCCCN(Cc1cn2c(N3CCN(C)CC3)cccc2n1)[C@H]1CCCc2cccnc21` [Example 58, (8S)—N-Butyl-N-{[5-(4-methyl-1-piperazinyl)imidazo[1,2-a]pyridin-2-yl]methyl}-5,6,7,8-tetrahydro-8-quinolinamine]: the IC50 was < 0.1 µM.

Regarding `CN(C)Cc1ccccc1-c1cccc2nc(CN(C)C3CCCc4cccnc43)cn12` (centres unmarked) [Example 42, N-[(5-{2-[(Dimethylamino)methyl]phenyl}imidazo[1,2-a]pyridin-2-yl)methyl]-N-methyl-5,6,7,8-tetrahydro-8-quinolinamine], the IC50 was in the range of 0.1 to 0.5 µM.

`CN(C)CCNc1cccc2nc(CN(C)[C@H]3CCCc4cccnc43)cn12` [Example 101, N,N-Dimethyl-N′-[2-({methyl[(8S)-5,6,7,8-tetrahydro-8-quinolinyl]amino}methyl)imidazo[1,2-a]pyridin-5-yl]-1,2-ethanediamine]: the IC50 is < 0.1 µM.

Take `CN(Cc1cn2c(NC(=O)c3cccnc3)cccc2n1)C1CCCc2cccnc21` (centres unmarked) [Example 44, N-(2-{[Methyl(5,6,7,8-tetrahydro-8-quinolinyl)amino]methyl}imidazo[1,2-a]pyridin-5-yl)-3-pyridinecarboxamide]: the IC50 is 0.5 to 10 µM.

Turning to `CN1CCN(c2cccc3nc(CN(Cc4ccccc4F)[C@H]4CCCc5cccnc54)cn23)CC1` [Example 60, (8S)—N-[(2-Fluorophenyl)methyl]-N-{[5-(4-methyl-1-piperazinyl)imidazo[1,2-a]pyridin-2-yl]methyl}-5,6,7,8-tetrahydro-8-quinolinamine], the IC50 is < 0.1 µM.

Turning to `CN1CCN(c2cccc3nc(CN(Cc4ccccc4Br)[C@H]4CCCc5cccnc54)cn23)CC1` [Example 63, (8S)—N-[(2-Bromophenyl)methyl]-N-{[5-(4-methyl-1-piperazinyl)imidazo[1,2-a]pyridin-2-yl]methyl}-5,6,7,8-tetrahydro-8-quinolinamine], the IC50 lay within 0.1 to 0.5 µM.

With `CN1CCN(c2cccc3nc(CN(C4CC4)C4CCCc5cccnc54)cn23)CC1` (centres unmarked) [Example 34, N-Cyclopropyl-N-{[5-(4-methyl-1-piperazinyl)imidazo[1,2-a]pyridin-2-yl]methyl}-5,6,7,8-tetrahydro-8-quinolinamine], the IC50 is < 0.1 µM.

In the case of `CC(C)Cc1ccc(CN(Cc2cn3c(N4CCN(C)CC4)cccc3n2)[C@H]2CCCc3cccnc32)cc1` [Example 77, (8S)—N-{[5-(4-Methyl-1-piperazinyl)imidazo[1,2-a]pyridin-2-yl]methyl}-N-{[4-(2-methylpropyl)phenyl]methyl}-5,6,7,8-tetrahydro-8-quinolinamine], the IC50 was < 0.1 µM.

As for `CN1CCN(c2cccc3nc(CN(Cc4ccc(F)cc4)[C@H]4CCCc5cccnc54)cn23)CC1` [Example 62, (8S)—N-[(4-Fluorophenyl)methyl]-N-{[5-(4-methyl-1-piperazinyl)imidazo[1,2-a]pyridin-2-yl]methyl}-5,6,7,8-tetrahydro-8-quinolinamine], the IC50 was < 0.1 µM.

As for `COCCN1CCN(c2cccc3nc(CN(C)C4CCCc5cccnc54)cn23)CC1` (centres unmarked) [Example 33, N-Methyl-N-[(5-{4-[2-(methyloxy)ethyl]-1-piperazinyl}imidazo[1,2-a]pyridin-2-yl)methyl]-5,6,7,8-tetrahydro-8-quinolinamine], the IC50 is < 0.1 µM.

As for `Cc1ccccc1CN(Cc1cn2c(N3CCN(C)CC3)cccc2n1)[C@H]1CCCc2cccnc21` [Example 66, (8S)—N-[(2-Methylphenyl)methyl]-N-{[5-(4-methyl-1-piperazinyl)imidazo[1,2-a]pyridin-2-yl]methyl}-5,6,7,8-tetrahydro-8-quinolinamine], the IC50 is < 0.1 µM.

For `CCCN(Cc1cn2c(N3CCN(C)CC3)cccc2n1)[C@H]1CCCc2cccnc21` [Example 56, (8S)—N-{[5-(4-Methyl-1-piperazinyl)imidazo[1,2-a]pyridin-2-yl]methyl}-N-propyl-5,6,7,8-tetrahydro-8-quinolinamine], the IC50 is < 0.1 µM.

As to `COc1ccc([C@H](C)N(Cc2cn3c(N4CCN(C)CC4)cccc3n2)[C@H]2CCCc3cccnc32)cc1` [Example 48, (8S)—N-{(1S)-1-[4-(Methyloxy)phenyl]ethyl}-N-{[5-(4-methyl-1-piperazinyl)imidazo[1,2-a]pyridin-2-yl]methyl}-5,6,7,8-tetrahydro-8-quinolinamine], the IC50 was in the range of 0.1 to 0.5 µM.

As to `CN1CCC(N(C)c2cccc3nc(CN(C)C4CCCc5cccnc54)cn23)CC1` (centres unmarked) [Example 28, N-Methyl-N-({5-[methyl(1-methyl-4-piperidinyl)amino]imidazo[1,2-a]pyridin-2-yl}methyl)-5,6,7,8-tetrahydro-8-quinolinamine], the IC50 fell in the range of 0.1 to 0.5 µM.

With `CN(C)C1CCN(c2cccc3nc(CN(C)C4CCCc5cccnc54)cn23)CC1` (centres unmarked) [Example 38, N-({5-[4-(Dimethylamino)-1-piperidinyl]imidazo[1,2-a]pyridin-2-yl}methyl)-N-methyl-5,6,7,8-tetrahydro-8-quinolinamine], the IC50 was < 0.1 µM.

The values above are taken from patent publication US20070232615A1, “Chemical Compounds” (priority 2004, published 2007).
